# Measured values taken from US6498125B2, “Pyridine ketones useful as herbicides” (Syngenta Participations AG, priority 1998, dated 2002).
# System: Monocotyledonous and dicotyledonous test plants
# Assay: Example B2: post-emergence herbicidal action, 2 kg of AS/ha
# Assay type: in vivo
# Set-up: key: 1 = complete damage, 9 = no effect
# Settings: test plant Avena, 4- to 6-leaf stage, about 18 days, scale 1-9
# Protocol: Monocotyledonous and dicotyledonous test plants are grown in plastic pots with standard soil in a greenhouse and, in the 4- to 6-leaf stage, are sprayed with an aqueous suspension of the test substances of the formula 1, prepared from a 25% wettable powder (Example F3, b) according to WO 97134485) or with an emulsion of the test substances of the formula I, prepared from a 25% emulsion concentrate (Example F1, c) according to WO 97/34485), corresponding to a dosage of 2 kg of AS/ha (500 l of water/ha). The test plants are then grown further under optimum conditions in a greenhouse. After a test period of about 18 days, the test is evaluated with a nine-level scale of rating (1=complete damage, 9=no effect). Ratings of 1 to 4 (in particular 1 to 3) mean good to very good herbicidal action. In this test, the compounds of the formula I show strong herbicidal action.
row,SMILES,"post-emergence action rating, Avena"
1,Cc1nc(C(F)(F)C(F)(F)F)ccc1C(=O)C1=C(O)C2CCC(C2)C1=O (centres unmarked) [Compound 1.109],2
2,Cc1nc(C(F)(F)Cl)ccc1C(=O)C1=C(O)C2CCC(C2)C1=O (centres unmarked) [Compound 1.195],2
3,Cc1cc(C(=O)C2=C(O)C3CCC(C3)C2=O)c(C)nc1C(F)(F)F (centres unmarked) [Compound 1.313],2
4,Cc1nc(C(F)(F)F)ccc1C(=O)C1=C([O-])C2CCC(C2)C1=O.[K+] (centres unmarked) [Compound 1.376],1

# Same assay, conditions: test plant Setaria, 4- to 6-leaf stage, about 18 days, scale 1-9
row,SMILES,"post-emergence action rating, Setaria"
1,Cc1nc(C(F)(F)C(F)(F)F)ccc1C(=O)C1=C(O)C2CCC(C2)C1=O (centres unmarked) [Compound 1.109],2
2,Cc1nc(C(F)(F)Cl)ccc1C(=O)C1=C(O)C2CCC(C2)C1=O (centres unmarked) [Compound 1.195],2
3,Cc1cc(C(=O)C2=C(O)C3CCC(C3)C2=O)c(C)nc1C(F)(F)F (centres unmarked) [Compound 1.313],2
4,Cc1nc(C(F)(F)F)ccc1C(=O)C1=C([O-])C2CCC(C2)C1=O.[K+] (centres unmarked) [Compound 1.376],2

# Same assay, conditions: test plant Sinapis, 4- to 6-leaf stage, about 18 days, scale 1-9
row,SMILES,"post-emergence action rating, Sinapis"
1,Cc1nc(C(F)(F)C(F)(F)F)ccc1C(=O)C1=C(O)C2CCC(C2)C1=O (centres unmarked) [Compound 1.109],1
2,Cc1nc(C(F)(F)Cl)ccc1C(=O)C1=C(O)C2CCC(C2)C1=O (centres unmarked) [Compound 1.195],1
3,Cc1cc(C(=O)C2=C(O)C3CCC(C3)C2=O)c(C)nc1C(F)(F)F (centres unmarked) [Compound 1.313],1
4,Cc1nc(C(F)(F)F)ccc1C(=O)C1=C([O-])C2CCC(C2)C1=O.[K+] (centres unmarked) [Compound 1.376],1

# Same assay, conditions: test plant Solanum, 4- to 6-leaf stage, about 18 days, scale 1-9
row,SMILES,"post-emergence action rating, Solanum"
1,Cc1nc(C(F)(F)C(F)(F)F)ccc1C(=O)C1=C(O)C2CCC(C2)C1=O (centres unmarked) [Compound 1.109],2
2,Cc1nc(C(F)(F)Cl)ccc1C(=O)C1=C(O)C2CCC(C2)C1=O (centres unmarked) [Compound 1.195],2
3,Cc1cc(C(=O)C2=C(O)C3CCC(C3)C2=O)c(C)nc1C(F)(F)F (centres unmarked) [Compound 1.313],2
4,Cc1nc(C(F)(F)F)ccc1C(=O)C1=C([O-])C2CCC(C2)C1=O.[K+] (centres unmarked) [Compound 1.376],2

# Same assay, conditions: test plant Stellaria, 4- to 6-leaf stage, about 18 days, scale 1-9
row,SMILES,"post-emergence action rating, Stellaria"
1,Cc1nc(C(F)(F)C(F)(F)F)ccc1C(=O)C1=C(O)C2CCC(C2)C1=O (centres unmarked) [Compound 1.109],2
2,Cc1nc(C(F)(F)Cl)ccc1C(=O)C1=C(O)C2CCC(C2)C1=O (centres unmarked) [Compound 1.195],2
3,Cc1cc(C(=O)C2=C(O)C3CCC(C3)C2=O)c(C)nc1C(F)(F)F (centres unmarked) [Compound 1.313],2
4,Cc1nc(C(F)(F)F)ccc1C(=O)C1=C([O-])C2CCC(C2)C1=O.[K+] (centres unmarked) [Compound 1.376],2

# System: Monocotyledonous and dicotyledonous test plants
# Assay: Example B1: pre-emergence herbicidal action, 2 kg of AS/ha
# Assay type: in vivo
# Settings: test plant Avena, 3 weeks, scale 1-9
# Protocol: Monocotyledonous and dicotyledonous test plants are sown in standard soil in plastic pots. Immediately after sowing, the test substances are sprayed on (500 l of water/ha) as an aqueous suspension (prepared from a 25% wettable powder (Example F3, b) according to WO 97/34485) or emulsion (prepared from a 25% emulsion concentrate (Example F1, c)), corresponding to a dosage of 2 kg of AS/ha. The test plants are then grown under optimum conditions in a greenhouse. After a test period of 3 weeks, the test is evaluated with a nine-level scale of ratings (1=complete damage, 9=no effect). Ratings of 1 to 4 (in particular 1 to 3) mean good to very good herbicidal action.
row,SMILES,"pre-emergence action rating, Avena"
1,Cc1nc(C(F)(F)C(F)(F)F)ccc1C(=O)C1=C(O)C2CCC(C2)C1=O (centres unmarked) [Compound 1.109],2
2,Cc1nc(C(F)(F)Cl)ccc1C(=O)C1=C(O)C2CCC(C2)C1=O (centres unmarked) [Compound 1.195],2
3,Cc1cc(C(=O)C2=C(O)C3CCC(C3)C2=O)c(C)nc1C(F)(F)F (centres unmarked) [Compound 1.313],3
4,Cc1nc(C(F)(F)F)ccc1C(=O)C1=C([O-])C2CCC(C2)C1=O.[K+] (centres unmarked) [Compound 1.376],2

# Same assay, conditions: test plant Cyperus, 3 weeks, scale 1-9
row,SMILES,"pre-emergence action rating, Cyperus"
1,Cc1nc(C(F)(F)C(F)(F)F)ccc1C(=O)C1=C(O)C2CCC(C2)C1=O (centres unmarked) [Compound 1.109],2
2,Cc1nc(C(F)(F)Cl)ccc1C(=O)C1=C(O)C2CCC(C2)C1=O (centres unmarked) [Compound 1.195],1
3,Cc1cc(C(=O)C2=C(O)C3CCC(C3)C2=O)c(C)nc1C(F)(F)F (centres unmarked) [Compound 1.313],1
4,Cc1nc(C(F)(F)F)ccc1C(=O)C1=C([O-])C2CCC(C2)C1=O.[K+] (centres unmarked) [Compound 1.376],1

# Same assay, conditions: test plant Setaria, 3 weeks, scale 1-9
row,SMILES,"pre-emergence action rating, Setaria"
1,Cc1nc(C(F)(F)C(F)(F)F)ccc1C(=O)C1=C(O)C2CCC(C2)C1=O (centres unmarked) [Compound 1.109],2
2,Cc1nc(C(F)(F)Cl)ccc1C(=O)C1=C(O)C2CCC(C2)C1=O (centres unmarked) [Compound 1.195],1
3,Cc1cc(C(=O)C2=C(O)C3CCC(C3)C2=O)c(C)nc1C(F)(F)F (centres unmarked) [Compound 1.313],2
4,Cc1nc(C(F)(F)F)ccc1C(=O)C1=C([O-])C2CCC(C2)C1=O.[K+] (centres unmarked) [Compound 1.376],1

# Same assay, conditions: test plant Sinapis, 3 weeks, scale 1-9
row,SMILES,"pre-emergence action rating, Sinapis"
1,Cc1nc(C(F)(F)C(F)(F)F)ccc1C(=O)C1=C(O)C2CCC(C2)C1=O (centres unmarked) [Compound 1.109],2
2,Cc1nc(C(F)(F)Cl)ccc1C(=O)C1=C(O)C2CCC(C2)C1=O (centres unmarked) [Compound 1.195],1
3,Cc1cc(C(=O)C2=C(O)C3CCC(C3)C2=O)c(C)nc1C(F)(F)F (centres unmarked) [Compound 1.313],1
4,Cc1nc(C(F)(F)F)ccc1C(=O)C1=C([O-])C2CCC(C2)C1=O.[K+] (centres unmarked) [Compound 1.376],2

# Same assay, conditions: test plant Solanum, 3 weeks, scale 1-9
row,SMILES,"pre-emergence action rating, Solanum"
1,Cc1nc(C(F)(F)C(F)(F)F)ccc1C(=O)C1=C(O)C2CCC(C2)C1=O (centres unmarked) [Compound 1.109],1
2,Cc1nc(C(F)(F)Cl)ccc1C(=O)C1=C(O)C2CCC(C2)C1=O (centres unmarked) [Compound 1.195],1
3,Cc1cc(C(=O)C2=C(O)C3CCC(C3)C2=O)c(C)nc1C(F)(F)F (centres unmarked) [Compound 1.313],1
4,Cc1nc(C(F)(F)F)ccc1C(=O)C1=C([O-])C2CCC(C2)C1=O.[K+] (centres unmarked) [Compound 1.376],1

# Same assay, conditions: test plant Stellaria, 3 weeks, scale 1-9
row,SMILES,"pre-emergence action rating, Stellaria"
1,Cc1nc(C(F)(F)C(F)(F)F)ccc1C(=O)C1=C(O)C2CCC(C2)C1=O (centres unmarked) [Compound 1.109],3
2,Cc1nc(C(F)(F)Cl)ccc1C(=O)C1=C(O)C2CCC(C2)C1=O (centres unmarked) [Compound 1.195],2
3,Cc1cc(C(=O)C2=C(O)C3CCC(C3)C2=O)c(C)nc1C(F)(F)F (centres unmarked) [Compound 1.313],2
4,Cc1nc(C(F)(F)F)ccc1C(=O)C1=C([O-])C2CCC(C2)C1=O.[K+] (centres unmarked) [Compound 1.376],2
